Measurements published in ChEMBL document CHEMBL1201862, “PubChem BioAssay data set” (2004).
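The compound was tested at five concentrations on cells cultured in 96-well plates, with a 48-hour exposure period. At the GI50, growth is halved.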 Activity calls are given as the source filed them. No stated cut-off is given here; in the data, active = GI50 up to about 1.1 µM and inactive = higher.

How the values were obtained:
Assay in all cases: inhibition of tumour cell growth, NCI panel, 48 h
SNB-19 = test system: SNB-19
CCRF-CEM = test system: CCRF-CEM
MDA-MB-231 = test system: MDA-MB-231
OVCAR-3 = test system: OVCAR-3
SK-MEL-2 = test system: SK-MEL-2
Malme-3M = test system: Malme-3M
HOP-92 = test system: HOP-92
A498 = test system: A498
ACHN = test system: ACHN
HL-60 = test system: HL-60
786-0 = test system: 786-0
SK-MEL-28 = test system: SK-MEL-28
SF-295 = test system: SF-295
NCI-H23 = test system: NCI-H23
SW-620 = test system: SW-620
HT-29 = test system: HT-29
HCC 2998 = test system: HCC 2998
CAKI-1 = test system: CAKI-1
SN12C = test system: SN12C
T47D = test system: T47D

Structure (SMILES)	GI50 (SNB-19)	GI50 (CCRF-CEM)	GI50 (MDA-MB-231)	GI50 (OVCAR-3)	GI50 (SK-MEL-2)	GI50 (Malme-3M)	GI50 (HOP-92)	GI50 (A498)	GI50 (ACHN)	GI50 (HL-60)	GI50 (786-0)	GI50 (SK-MEL-28)	GI50 (SF-295)	GI50 (NCI-H23)	GI50 (SW-620)	GI50 (HT-29)	GI50 (HCC 2998)	GI50 (CAKI-1)	GI50 (SN12C)	GI50 (T47D)
O=c1ccn(C2OC(CO)C(O)C2[Se]c2ccccc2)c(=O)[nH]1 (centres undefined)	> 100 µM (inactive)	> 100 µM (inactive)	> 100 µM (inactive)	> 100 µM (inactive)	> 100 µM (inactive)	> 100 µM (inactive)	> 100 µM (inactive)	> 100 µM (inactive)	> 100 µM (inactive)	> 100 µM (inactive)	> 100 µM (inactive)	> 100 µM (inactive)	> 100 µM (inactive)	> 100 µM (inactive)	> 100 µM (inactive)	> 100 µM (inactive)	92.3 µM (inactive)	> 100 µM (inactive)	> 100 µM (inactive)	
Oc1cccc(-c2cc(=S)ss2)c1	19.7 µM (inactive)		14.3 µM (inactive)		15.6 µM (inactive)	17.6 µM (inactive)	13.9 µM (inactive)		15.7 µM (inactive)	15 µM (inactive)	19.7 µM (inactive)	19.7 µM (inactive)	14.3 µM (inactive)	8.79 µM (inactive)	18.5 µM (inactive)	24.7 µM (inactive)	17.7 µM (inactive)	18.2 µM (inactive)	20.2 µM (inactive)	
Cn1c2ccccc2n2c3ccccc3c(=S)c(C#N)c12	> 100 µM (inactive)	> 100 µM (inactive)		> 100 µM (inactive)	> 100 µM (inactive)			> 100 µM (inactive)	> 100 µM (inactive)	> 100 µM (inactive)	92.3 µM (inactive)	> 100 µM (inactive)	> 100 µM (inactive)	> 100 µM (inactive)	> 100 µM (inactive)	> 100 µM (inactive)	> 100 µM (inactive)	> 100 µM (inactive)		> 10 µM (inactive)
COC(=O)c1ccc(Oc2nc3ccccc3nc2-c2cccs2)cc1	27.5 µM (inactive)	> 100 µM (inactive)	21.3 µM (inactive)	> 100 µM (inactive)	> 100 µM (inactive)	> 100 µM (inactive)			71.3 µM (inactive)	> 100 µM (inactive)	34.4 µM (inactive)	> 100 µM (inactive)	18.7 µM (inactive)	23.6 µM (inactive)	46.8 µM (inactive)	> 100 µM (inactive)		43.4 µM (inactive)	> 100 µM (inactive)	60.8 µM (inactive)
O=C(NN1C(=O)C(Cl)C1c1ccc(Cl)cc1)c1c(Cl)c(Cl)c(Cl)c(Cl)c1-c1nc2ccccc2[nH]1 (centres undefined)	36.1 µM (inactive)	8.39 µM (inactive)		27.8 µM (inactive)	21.8 µM (inactive)	21.1 µM (inactive)	13.5 µM (inactive)	24.8 µM (inactive)	18.9 µM (inactive)	25.4 µM (inactive)	16.5 µM (inactive)	16.9 µM (inactive)	23.9 µM (inactive)	21.5 µM (inactive)	23.1 µM (inactive)	25.2 µM (inactive)	15.1 µM (inactive)	3.73 µM (inactive)	23 µM (inactive)	< 0.01 µM (active)
O=C1CC[C@@]23CC(=O)O[C@@H]2CCCC3C1 (some centres undefined)	> 100 µM (inactive)	> 100 µM (inactive)	> 100 µM (inactive)		> 100 µM (inactive)	> 100 µM (inactive)			> 100 µM (inactive)	> 100 µM (inactive)	> 100 µM (inactive)	> 100 µM (inactive)	> 100 µM (inactive)	> 100 µM (inactive)	> 100 µM (inactive)	> 100 µM (inactive)	> 100 µM (inactive)	> 100 µM (inactive)	> 100 µM (inactive)	> 100 µM (inactive)
CCOc1cc2c(cc1O)CC[C@@H]1[C@@H]2CC[C@]2(C)[C@@H](O)CC[C@@H]12	0.0334 µM (active)	0.0274 µM (active)	0.188 µM (active)	0.0184 µM (active)	0.118 µM (active)		0.0537 µM (active)	2.09 µM (inactive)	0.0123 µM (active)	0.014 µM (active)	0.0301 µM (active)	0.443 µM (active)	0.138 µM (active)	0.0667 µM (active)	0.0183 µM (active)	4.88 µM (inactive)	0.532 µM (active)	0.0644 µM (active)	0.0778 µM (active)	
N#CCCN(C1=NN(C(=O)CC(=O)Nc2ccc(Cl)cc2)C(c2ccccc2)C1)c1ccc(Cl)cc1 (centres undefined)	> 100 µM (inactive)	> 100 µM (inactive)		> 100 µM (inactive)	> 100 µM (inactive)	> 100 µM (inactive)	> 100 µM (inactive)	> 100 µM (inactive)	> 100 µM (inactive)	> 100 µM (inactive)	> 100 µM (inactive)	> 100 µM (inactive)	> 100 µM (inactive)	> 100 µM (inactive)	> 100 µM (inactive)	> 100 µM (inactive)	> 100 µM (inactive)	> 100 µM (inactive)	> 100 µM (inactive)	
C=C(C)C#CC(O)(C(=O)OC1CCN(C)CC1)C(C)C (centres undefined)	> 100 µM (inactive)	> 100 µM (inactive)	> 100 µM (inactive)	> 100 µM (inactive)		> 100 µM (inactive)			> 100 µM (inactive)	> 100 µM (inactive)	> 100 µM (inactive)	> 100 µM (inactive)	> 100 µM (inactive)	> 100 µM (inactive)	> 100 µM (inactive)	> 100 µM (inactive)	> 100 µM (inactive)	> 100 µM (inactive)	> 100 µM (inactive)	> 100 µM (inactive)
CCOC(=O)n1[nH]c(=O)n(-c2ccccc2)c1=O	> 100 µM (inactive)	> 100 µM (inactive)	> 100 µM (inactive)	> 100 µM (inactive)	> 100 µM (inactive)	> 100 µM (inactive)			> 100 µM (inactive)	> 100 µM (inactive)	> 100 µM (inactive)	> 100 µM (inactive)	> 100 µM (inactive)	> 100 µM (inactive)	> 100 µM (inactive)	> 100 µM (inactive)	> 100 µM (inactive)	> 100 µM (inactive)	> 100 µM (inactive)	> 100 µM (inactive)
O=C1c2cccc3cc([N+](=O)[O-])cc(c23)C(=O)N1CCCN1CCN(CCCNc2ccc3ncn4c5ccccc5c(=O)c2c34)CC1	< 0.005 µM (active)	< 0.005 µM (active)	< 0.005 µM (active)	0.0358 µM (active)	0.0191 µM (active)	< 0.005 µM (active)	0.013 µM (active)	< 0.005 µM (active)	< 0.005 µM (active)	< 0.005 µM (active)	< 0.005 µM (active)	0.0562 µM (active)	< 0.005 µM (active)	< 0.005 µM (active)	< 0.005 µM (active)	< 0.005 µM (active)	< 0.005 µM (active)	< 0.005 µM (active)	< 0.005 µM (active)	
CN(C)c1ccc(/C=C/c2ccc(/C=C/c3ccc(N(C)C)cc3)cc2)cc1	78.5 µM (inactive)	> 100 µM (inactive)		> 100 µM (inactive)	> 100 µM (inactive)	13 µM (inactive)	92.5 µM (inactive)	> 100 µM (inactive)	57.8 µM (inactive)	> 100 µM (inactive)	> 100 µM (inactive)	> 100 µM (inactive)	89.1 µM (inactive)	94.6 µM (inactive)	> 100 µM (inactive)	> 100 µM (inactive)	> 100 µM (inactive)	> 100 µM (inactive)	> 100 µM (inactive)	
Cc1ccc(S(=O)(=O)Nn2c(O)c(C#N)c(-c3ccc(Cl)cc3)c(C#N)c2=O)cc1	> 100 µM (inactive)	> 100 µM (inactive)	> 100 µM (inactive)		> 100 µM (inactive)	> 100 µM (inactive)	> 100 µM (inactive)	> 100 µM (inactive)	> 100 µM (inactive)	> 100 µM (inactive)	> 100 µM (inactive)	> 100 µM (inactive)	> 100 µM (inactive)		> 100 µM (inactive)	> 100 µM (inactive)	> 100 µM (inactive)	> 100 µM (inactive)	> 100 µM (inactive)	
Cc1nc(-n2nc(-c3ccccc3)cc2-c2ccccc2)sc1C(=O)/C=C/c1cccc([N+](=O)[O-])c1	11.4 µM (inactive)	8.32 µM (inactive)		3.03 µM (inactive)	17.7 µM (inactive)	19.2 µM (inactive)	22.9 µM (inactive)	20.2 µM (inactive)	23.3 µM (inactive)	12.2 µM (inactive)	12.7 µM (inactive)	17.1 µM (inactive)	20.1 µM (inactive)	17.2 µM (inactive)	> 10 µM (inactive)	12.7 µM (inactive)	15.5 µM (inactive)	16.7 µM (inactive)	19.8 µM (inactive)	
CC(=O)N1CCN(CCCCN2c3ccccc3Sc3cc(N=[N+]=[N-])ccc32)CC1	14.5 µM (inactive)	14.5 µM (inactive)	13.8 µM (inactive)	12.8 µM (inactive)		17.1 µM (inactive)			14.9 µM (inactive)	8.87 µM (inactive)	15.6 µM (inactive)	18.1 µM (inactive)	16.8 µM (inactive)	15.7 µM (inactive)	15.5 µM (inactive)	13.6 µM (inactive)	14.5 µM (inactive)	12.1 µM (inactive)	15.6 µM (inactive)	3.65 µM (inactive)
